This is an account of results in ChEMBL document CHEMBL3120145, “Interaction kinetics of liposome-incorporated unsaturated fatty acids with fatty acid-binding protein 3 by surface plasmon resonance” (Bioorg Med Chem, 2014).

The target in assay [1] is T1, Fatty acid-binding protein, heart (Homo sapiens, UniProt P05413). As to the kind of experiment: Binding affinity to human FABP3 expressed in Escherichia coli BL21 (DE3) at 60 uM by surface plasmon resonance analysis. In general terms: Surface plasmon resonance follows binding to a sensor surface in real time, without labels.
Assay [2] addresses T1, Fatty acid-binding protein, heart. The experiment in a line: Binding affinity to human FABP3 expressed in Escherichia coli BL21 (DE3) in DMPC liposomes by surface plasmon resonance analysis.
Assay [3] shares this target. The experiment in a line: Binding affinity to human FABP3 expressed in Escherichia coli BL21 (DE3) at 10 uM in DMPC liposomes by surface plasmon resonance analysis.

The Kd is the concentration at which binding is half-saturated. Lower therefore signals higher affinity.

T1 sequence (P05413 whole entry): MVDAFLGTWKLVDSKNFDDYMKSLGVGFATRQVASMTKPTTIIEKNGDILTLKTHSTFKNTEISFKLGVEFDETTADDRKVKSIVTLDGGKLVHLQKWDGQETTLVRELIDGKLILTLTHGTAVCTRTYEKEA

Molecule `CCCCCCCCCCCCCC(=O)OC[C@H](COP(=O)(O)OCC[N+](C)(C)C)OC(=O)CCCCCCCCCCCCC` displayed a Kd in assay [1] of 3.6 nM.

In assay [2], `CC/C=C\C/C=C\C/C=C\CCCCCCCC(=O)O` displayed a Kd of 2.76 nM.

In the case of `CCCCCCCCCCC/C=C\CCCCC(=O)O`, the figures for the dissociation constant (Kd) in assay [1] and in assay [3] were 54200 nM and 401 nM, respectively.
